Source: patent US7811819B2, “Cryopreservation of primate embryonic stem cells” (The University of Washington, priority 2005, dated 2010)

Key:
H1 hESC [1] = assay: Survival of hESC after slow, controlled-rate freezing and thaw (colony number and colony size relative to untreated control); assay type: cell-based, human; settings: sucrose on thaw (cryoprotectant removal); concentration not given
Experimental: (§1) hESC culture. H1 hESC from passage 51 to 57 (WiCell, Madison, Wis., USA) were cultured in Knockout™ DMEM supplemented with GlutaMAX™ (2 mM), sodium pyruvate (1.0 mM), non-essential amino acids (0.1 mM), penicillin (50 u/ml), streptomycin (50 u/ml), Knockout™ serum replacer (15%) (all from Invitrogen, Carlsbad, Calif., USA) and β-mercaptoethanol (0.1 mM; Sigma, St. Louis, Mo., USA). hESC were grown on gelatinized tissue culture plates seeded with primary mouse embryonic fibroblasts that had been exposed to 3000 Rads γ-irradiation. To passage, cells were washed once with calcium and magnesium free phosphate buffered saline (PBS; Invitrogen, Carlsbad, Calif., USA) and then exposed to 1.2 u/ml dispase (Invitrogen, Carlsbad, Calif., USA) dissolved in PBS supplemented with 10% FBS until colonies began to lift from the plate. The cell layer was washed off the plate and mechanically dispersed using a plugged 9-inch Pasteur pipette or a 5 ml pipette. At this point, cells were divided into tubes for each group. The cells were then pelleted through centrifugation at 1200 rpm for 3 minutes, washed and pelleted again in culture medium (described above). […]
(§2) Calculation of Survival. Survival was calculated as combined colony number and colony size relative to Group 1, which was set at 100% survival. The horizontal diameters of 10 colonies were measured. […]

H1 hESC [2] = assay: Toxicity of the DMSO cryoprotectant to hESC without freezing (Group 2 vs control Group 1); assay type: cell-based, human; settings: DMSO 10% in freezing medium, straws held 20 minutes at room temperature, not frozen; Group 1 vs. 2; cells grown three days
Experimental: as §1, §2

Row | Compound | effect on survival following thaw (H1 hESC [1]) | toxicity to the hESC (H1 hESC [2])
1 | OC[C@H]1O[C@@](CO)(O[C@H]2O[C@H](CO)[C@@H](O)[C@H](O)[C@H]2O)[C@@H](O)[C@@H]1O [Sucrose] | harmful to survival | –
2 | C[S+](C)[O-] [DMSO] | – | does not appear toxic
